Laboratory results as given in patent publication US6033669A, “Methods for generating cytotoxic T cells and treatment of diseases thereby” (priority 1992, dated 2000).
Read-outs that look alike come from different tables or passages of the source.

How the values were obtained:
RMA-S cells [1] = assay: Membrane recycling of glycopeptide after pronase treatment; assay type: cell-based; settings: pronase treated RMA-S cells, 37° C.; data not shown
Experimental: (§1) Panel A: RMA-s cells were incubated for 24 hours at 26° C. to induce expression of empty D^b MHC-1 chains at the cell surface, and at 37° C., and stained for D^b expression. Panel B: Removal of D^b expression by pronase treatment of RMA-S cells, preincubated at 26° C. Pronase treatment for 2 h and 4 h. D^b removal is complete at 4 h. Panels C and E: 26° C. induced RMA-S cells were treated with the glycopeptides Gal2 -CSG11 (panel C) or Gal2 CAS10 (panel E), 300 μM for 2 h at 37° C., washed and stained for Gal2 expression. Panels D and F: Glycopeptide treated RMA-S cells as in panels C and E were pronase treated to remove Db and glycopeptide expression, washed and further incubated at 37° C. to allow re-expression of glycopeptides and stained for Gal2 expression.
The capacity of the conjugate to be recycled may be assessed by incubating the cells (with bound conjugate) at 37° C. whereupon the glycopeptide will internalise. The temperature may then be lowered and the cells treated with a proteolytic enzyme (e.g. Pronase) to strip off exposed peptide/carbohydrate conjugate. On reheating, recycled conjugate may be detected by probing for the Gal2 epitope using the anti-Gal2 antibody.
Described in FIGS. 10D and F.

EL4 and RMA-S cells = assay type: cell-based, mice
H-2D^b = target: T1, H-2D^b (Mus musculus, UniProt P01899); assay: MHC-1 upregulation on RMA-S cells (D^b); assay type: cell-based, murine; settings: RMA-S cells with peptide NP366-374 (50 μM), 6 h; FIG. 8
T1 sequence (P01899 25-362): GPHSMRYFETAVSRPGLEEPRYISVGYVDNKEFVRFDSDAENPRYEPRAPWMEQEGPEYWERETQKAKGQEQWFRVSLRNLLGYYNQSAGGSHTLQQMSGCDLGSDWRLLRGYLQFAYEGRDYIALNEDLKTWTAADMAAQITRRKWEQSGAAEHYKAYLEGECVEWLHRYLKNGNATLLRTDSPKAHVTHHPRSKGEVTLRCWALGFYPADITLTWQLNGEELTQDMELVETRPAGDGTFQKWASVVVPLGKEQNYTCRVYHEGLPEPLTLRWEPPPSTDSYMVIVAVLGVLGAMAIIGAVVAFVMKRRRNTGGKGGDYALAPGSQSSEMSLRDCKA
T1 sequence (P01887 21-119 partner): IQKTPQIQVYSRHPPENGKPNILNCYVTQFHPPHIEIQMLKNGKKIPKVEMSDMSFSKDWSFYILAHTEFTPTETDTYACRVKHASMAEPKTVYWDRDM

[2] = tested on: pep 9(PR8)-coated RMA target cells; assay: Kinetics of CTL activity after one s.c. injection of peptide (51Cr release); assay type: in vivo, mice; settings: primed once with 100 μg
[3] = tested on: monoclonal antibody Pk002; assay: ELISA recognition of Gal2 glycopeptides by monoclonal antibody Pk002; assay type: binding, mouse; settings: antibody Pk002 (specificity Globotriaosyl Gal--Gal--Glc, CD77); peptides coated at 50 μg/ml, pH 9.6
Experimental: (§2) Peptides (50 μg/ml) were diluted in 0.05 M carbonate buffer (pH 9.6) and 100 μl/well was added to flat-bottomed Costar microplates (cat. No 3590) for incubation over-night at 4° C. Plates were washed once with PBS, pre-incubated with […] for 30 minutes at room temperature and washed twice with PBS/0.05% Tween buffer. Monoclonal antibodies were diluted in 0.5% gelatin/PBS/0.05% Tween, added to microplates and incubated for 2 hours at room temperaure, and flick-washed with PBS/Tween. Alkaline phosphatase conjugated rabbit anti-mouse immunoglobulins (Dakopauts code No. S 414) was diluted 1/1000 in PBS/Tween and added as 100 μl/well. After 2 hours incubation at room temperature and 4 washes with PBS/Tween, 100 μl of alkaline phosphatase substrate solution was added. Plates were read after 2 hour at room temperaure, using a Multiskan System (Lab systems), for optical density at 405 nm.

[4] = tested on: monoclonal antibody MC2101; assay: ELISA recognition of Gal2 glycopeptides by monoclonal antibody MC2101; assay type: binding, mouse
Experimental: as §2
The ELISA assay was performed as described in connection with Table 4.

RMA-S cells [5] = assay: Membrane expression of the CHO part (Gal2) by antibody staining in FACS; assay type: cell-based; settings: data not shown
Experimental: as §1
When the glycopeptide bind to MHC-1, on the cell surface, the expression (and acessibility) of the corresponding CHO part, can be detected by antibody staining in FACS, as described above in relation to FIGS. 10C and E.

[6] = 100 μg s.c., restimulated with 5 μM in vitro
[7] = priming 1 μg, restimulation 0.05 μM, effector:target 20:1
[8] = priming 1 μg, restimulation 0.05 μM, effector:target 40:1
[9] = priming 1 μg, restimulation 5.00 μM, effector:target 20:1
[10] = priming 1 μg, restimulation 5.00 μM, effector:target 40:1
[11] = priming 10 μg, restimulation 0.05 μM, effector:target 20:1
[12] = priming 10 μg, restimulation 0.05 μM, effector:target 40:1
[13] = priming 10 μg, restimulation 5.00 μM, effector:target 20:1
[14] = priming 10 μg, restimulation 5.00 μM, effector:target 40:1
[15] = priming 100 μg, restimulation 0.05 μM, effector:target 20:1
[16] = priming 100 μg, restimulation 0.05 μM, effector:target 40:1
[17] = priming 100 μg, restimulation 5.00 μM, effector:target 20:1
[18] = priming 100 μg, restimulation 5.00 μM, effector:target 40:1

## CCN(CC)CCCC(C)Nc1ccnc2cc(Cl)ccc12 (centres unmarked) [chloroquine]
RMA-S cells [1]
  effect on return of the Gal2 epitope to the cell surface: inhibited
EL4 and RMA-S cells; pronase treated peptide-coated cells incubated at 37° C., data not shown
  effect on return of susceptibility to CTL killing: blocked
H-2D^b
  effect on peptide mediated MHC-1 (H-2D^b) upregulation: inhibits this upregulation

## ASNENMETM [pep 9(PR8), NP366-374 of influenza A virus strain A/PR/8/34]
EL4 and RMA-S cells; FIG. 11
  killing of peptide treated RMA-S and EL-4 target cells by influenza A (PR8) specific CTL: strongly killed
EL4 target cells; [6]
  CTL response against pep 9(PR8)-coated RMA and EL4 cells: strong CTL response
  killing of virus-infected target cells: not killed
EL4 target cells; FIG. 7a
  lysis of pep 9(PR8)-coated EL4 cells by CTL depleted for CD8^+ T cells: failed to lyse
EL4 target cells; FIG. 7a, pep 9(PR8)-coated target cells
  effect of depletion of CD4^+ T cells on cytolytic activity: did not affect the cytolytic activity
EL4 target cells; immunization with 10 μg and 1 μg
  CTL response: less or even no CTL response
EL4 target cells; mouse, in vivo
  MHC restriction of peptide-induced cytotoxicity: H-2D^b restricted
  specificity of induced CTL: preferentially killed their corresponding peptide-coated and virus-infected cells
EL4 target cells; [7]
  EL4 target lysis (%) PR8-infected: 10.50%
  EL4 target lysis (%) Untreated: 3.32%
  EL4 target lysis (%) pep9(PR8)-coated: 15.54%
EL4 target cells; [8]
  EL4 target lysis (%) PR8-infected: 12.43%
  EL4 target lysis (%) Untreated: 4.08%
  EL4 target lysis (%) pep9(PR8)-coated: 16.44%
EL4 target cells; [9]
  EL4 target lysis (%) PR8-infected: 5.54%
  EL4 target lysis (%) Untreated: 2.66%
  EL4 target lysis (%) pep9(PR8)-coated: 9.28%
EL4 target cells; [10]
  EL4 target lysis (%) PR8-infected: 6.88%
  EL4 target lysis (%) Untreated: 3.34%
  EL4 target lysis (%) pep9(PR8)-coated: 11.85%
EL4 target cells; [11]
  EL4 target lysis (%) PR8-infected: 23.75%
  EL4 target lysis (%) Untreated: 4.14%
  EL4 target lysis (%) pep9(PR8)-coated: 34.60%
EL4 target cells; [12]
  EL4 target lysis (%) PR8-infected: 31.19%
  EL4 target lysis (%) Untreated: 5.74%
  EL4 target lysis (%) pep9(PR8)-coated: 45.52%
EL4 target cells; [13]
  EL4 target lysis (%) PR8-infected: 13.98%
  EL4 target lysis (%) Untreated: 4.19%
  EL4 target lysis (%) pep9(PR8)-coated: 22.09%
EL4 target cells; [14]
  EL4 target lysis (%) PR8-infected: 15.04%
  EL4 target lysis (%) Untreated: 5.63%
  EL4 target lysis (%) pep9(PR8)-coated: 23.54%
EL4 target cells; [15]
  EL4 target lysis (%) PR8-infected: 30.07%
  EL4 target lysis (%) Untreated: 0.51%
  EL4 target lysis (%) pep9(PR8)-coated: 50.73%
EL4 target cells; [16]
  EL4 target lysis (%) PR8-infected: 30.76%
  EL4 target lysis (%) Untreated: 0.12%
  EL4 target lysis (%) pep9(PR8)-coated: 59.42%
EL4 target cells; [17]
  EL4 target lysis (%) PR8-infected: 8.50%
  EL4 target lysis (%) Untreated: 4.21%
  EL4 target lysis (%) pep9(PR8)-coated: 34.73%
EL4 target cells; [18]
  EL4 target lysis (%) PR8-infected: 7.00%
  EL4 target lysis (%) Untreated: 4.61%
  EL4 target lysis (%) pep9(PR8)-coated: 43.68%
[2]
  CTL activity at day 30 after priming: lower level of CTL activity could still be detected
[2]; restimulated with 5 μM, effector:target 60:1
  time of peak CTL activity after the immunization: 7 days

## CC[C@H](C)[C@H](NC(=O)[C@H](CCC(=O)O)NC(=O)[C@@H]1CCCN1C(=O)[C@@H]1CCCN1C(=O)[C@@H](NC(=O)[C@H](CC(N)=O)NC(=O)[C@H](CO)NC(=O)[C@@H]1CCCN1C(=O)CNC(=O)[C@H](CO)NC(=O)[C@@H](N)CSCCO[C@@H]1O[C@H](CO)[C@H](O[C@H]2O[C@H](CO)[C@H](O)[C@H](O)[C@H]2O)[C@H](O)[C@H]1O)[C@@H](C)O)C(=O)O [Gal2 -CSG11]
[3]
  Absorbance at 405 nm: 0.04
[4]
  reactivity with MC2101 in ELISA, comparison: reacted stronger than the GAL2 -CAS10 peptide
[4]; antibody MC2101 (specificity Galabios Gal--Gal), peptides coated at 50 μg/ml, pH 9.6
  Absorbance at 405 nm: 1.86
RMA-S cells [5]
  expression of the Gal2 epitope on the surface of cells that have bound glycopeptides (FACS): high Gal2 expression
